Measured values as given in the NIST ThermoML archive (doi:10.1021/acs.jced.7b00106).
Numbers after ± are expanded uncertainties.

Details: Hot wire method

FC(F)(F)/C=C/Cl [(E)-1-chloro-3,3,3-trifluoroprop-1-ene]
thermal conductivity (383.11 K, 7892 kPa, Liquid): 0.06492 ± 0.00093 W/m/K | thermal conductivity (383.11 K, 8377 kPa, Liquid): 0.06527 ± 0.0038 W/m/K | thermal conductivity (383.11 K, 20088 kPa, Liquid): 0.07252 ± 0.001 W/m/K | thermal conductivity (383.12 K, 7882 kPa, Liquid): 0.06487 ± 0.0037 W/m/K | thermal conductivity (383.12 K, 8374 kPa, Liquid): 0.06525 ± 0.00075 W/m/K | thermal conductivity (383.12 K, 20102 kPa, Liquid): 0.07254 ± 0.0011 W/m/K | thermal conductivity (383.13 K, 1307 kPa, Liquid): 0.05937 ± 0.00087 W/m/K | thermal conductivity (383.13 K, 1311 kPa, Liquid): 0.05937 ± 0.00068 W/m/K | thermal conductivity (383.13 K, 35551 kPa, Liquid): 0.08007 ± 0.0014 W/m/K | thermal conductivity (383.13 K, 35559 kPa, Liquid): 0.08009 ± 0.0014 W/m/K | thermal conductivity (383.17 K, 33010 kPa, Liquid): 0.07893 ± 0.0013 W/m/K | thermal conductivity (383.17 K, 33031 kPa, Liquid): 0.07897 ± 0.0015 W/m/K | thermal conductivity (383.19 K, 6275 kPa, Liquid): 0.06357 ± 0.0009 W/m/K | thermal conductivity (383.2 K, 884 kPa, Fluid (supercritical or subcritical phases)): 0.018 ± 0.0025 W/m/K | thermal conductivity (383.2 K, 6276 kPa, Liquid): 0.06372 ± 0.00092 W/m/K | thermal conductivity (383.2 K, 16814 kPa, Liquid): 0.07066 ± 0.0013 W/m/K | thermal conductivity (383.2 K, 16828 kPa, Liquid): 0.07087 ± 0.00096 W/m/K | thermal conductivity (383.21 K, 885 kPa, Fluid (supercritical or subcritical phases)): 0.01804 ± 0.0032 W/m/K | thermal conductivity (383.21 K, 1198 kPa, Fluid (supercritical or subcritical phases)): 0.01888 ± 0.0043 W/m/K | thermal conductivity (383.23 K, 1197 kPa, Fluid (supercritical or subcritical phases)): 0.01891 ± 0.0043 W/m/K | thermal conductivity (383.23 K, 28320 kPa, Liquid): 0.07674 ± 0.0022 W/m/K | thermal conductivity (383.24 K, 28314 kPa, Liquid): 0.07674 ± 0.0022 W/m/K | thermal conductivity (383.25 K, 13728 kPa, Liquid): 0.06881 ± 0.0016 W/m/K | thermal conductivity (383.26 K, 13716 kPa, Liquid): 0.0688 ± 0.00089 W/m/K | thermal conductivity (383.3 K, 4299 kPa, Liquid): 0.0621 ± 0.0007 W/m/K | thermal conductivity (383.3 K, 4304 kPa, Liquid): 0.06207 ± 0.0007 W/m/K | thermal conductivity (383.31 K, 24121 kPa, Liquid): 0.07463 ± 0.0012 W/m/K | thermal conductivity (383.31 K, 24128 kPa, Liquid): 0.07464 ± 0.0012 W/m/K | thermal conductivity (383.34 K, 10966 kPa, Liquid): 0.06703 ± 0.00092 W/m/K | thermal conductivity (383.35 K, 10969 kPa, Liquid): 0.06723 ± 0.0009 W/m/K | thermal conductivity (383.36 K, 2610 kPa, Liquid): 0.06058 ± 0.001 W/m/K | thermal conductivity (383.36 K, 2618 kPa, Liquid): 0.06063 ± 0.0007 W/m/K | thermal conductivity (383.4 K, 20075 kPa, Liquid): 0.07247 ± 0.0021 W/m/K | thermal conductivity (383.4 K, 35533 kPa, Liquid): 0.07987 ± 0.0056 W/m/K | thermal conductivity (383.4 K, 35549 kPa, Liquid): 0.08004 ± 0.0012 W/m/K | thermal conductivity (383.41 K, 7887 kPa, Liquid): 0.06484 ± 0.00081 W/m/K | thermal conductivity (383.41 K, 8373 kPa, Liquid): 0.06523 ± 0.00089 W/m/K | thermal conductivity (383.41 K, 20088 kPa, Liquid): 0.07251 ± 0.0021 W/m/K | thermal conductivity (383.42 K, 999 kPa, Fluid (supercritical or subcritical phases)): 0.01831 ± 0.0029 W/m/K | thermal conductivity (383.42 K, 7894 kPa, Liquid): 0.06491 ± 0.0011 W/m/K | thermal conductivity (383.42 K, 8391 kPa, Liquid): 0.06529 ± 0.0015 W/m/K | thermal conductivity (383.43 K, 1000 kPa, Fluid (supercritical or subcritical phases)): 0.01834 ± 0.0029 W/m/K | thermal conductivity (383.44 K, 1304 kPa, Liquid): 0.05936 ± 0.00069 W/m/K | thermal conductivity (383.44 K, 1312 kPa, Liquid): 0.05942 ± 0.0014 W/m/K | thermal conductivity (383.44 K, 33007 kPa, Liquid): 0.07889 ± 0.0035 W/m/K | thermal conductivity (383.45 K, 33003 kPa, Liquid): 0.0789 ± 0.0032 W/m/K | thermal conductivity (383.49 K, 16818 kPa, Liquid): 0.07063 ± 0.0017 W/m/K | thermal conductivity (383.49 K, 16831 kPa, Liquid): 0.07066 ± 0.0069 W/m/K | thermal conductivity (383.5 K, 6277 kPa, Liquid): 0.06367 ± 0.0025 W/m/K | thermal conductivity (383.51 K, 6277 kPa, Liquid): 0.06368 ± 0.0023 W/m/K | thermal conductivity (383.51 K, 28297 kPa, Liquid): 0.07667 ± 0.0027 W/m/K | thermal conductivity (383.52 K, 28321 kPa, Liquid): 0.07671 ± 0.0023 W/m/K | thermal conductivity (383.54 K, 1198 kPa, Fluid (supercritical or subcritical phases)): 0.01908 ± 0.0041 W/m/K | thermal conductivity (383.55 K, 1198 kPa, Fluid (supercritical or subcritical phases)): 0.01907 ± 0.0038 W/m/K | thermal conductivity (383.55 K, 13721 kPa, Liquid): 0.06876 ± 0.002 W/m/K | thermal conductivity (383.56 K, 13735 kPa, Liquid): 0.06881 ± 0.0017 W/m/K | thermal conductivity (383.6 K, 24101 kPa, Liquid): 0.07457 ± 0.0016 W/m/K | thermal conductivity (383.6 K, 24124 kPa, Liquid): 0.0746 ± 0.0012 W/m/K | thermal conductivity (383.61 K, 4288 kPa, Liquid): 0.06216 ± 0.0007 W/m/K | thermal conductivity (383.62 K, 4293 kPa, Liquid): 0.06209 ± 0.001 W/m/K | thermal conductivity (383.65 K, 10955 kPa, Liquid): 0.067 ± 0.00086 W/m/K | thermal conductivity (383.65 K, 10973 kPa, Liquid): 0.06702 ± 0.0056 W/m/K | thermal conductivity (383.68 K, 2612 kPa, Liquid): 0.0606 ± 0.0008 W/m/K | thermal conductivity (383.68 K, 2620 kPa, Liquid): 0.06068 ± 0.0014 W/m/K | thermal conductivity (383.73 K, 8375 kPa, Liquid): 0.06521 ± 0.00091 W/m/K | thermal conductivity (383.73 K, 8381 kPa, Liquid): 0.06538 ± 0.0035 W/m/K | thermal conductivity (383.78 K, 999 kPa, Fluid (supercritical or subcritical phases)): 0.01848 ± 0.0032 W/m/K | thermal conductivity (401.38 K, 1794 kPa, Fluid (supercritical or subcritical phases)): 0.02085 ± 0.0036 W/m/K | thermal conductivity (401.39 K, 1794 kPa, Fluid (supercritical or subcritical phases)): 0.02077 ± 0.0053 W/m/K | thermal conductivity (401.48 K, 1714 kPa, Fluid (supercritical or subcritical phases)): 0.0205 ± 0.0048 W/m/K | thermal conductivity (401.48 K, 1716 kPa, Fluid (supercritical or subcritical phases)): 0.02045 ± 0.0066 W/m/K | thermal conductivity (401.53 K, 1623 kPa, Fluid (supercritical or subcritical phases)): 0.02023 ± 0.0029 W/m/K
